The values that follow come from publication PMC4899609, “Spectroscopic and Docking Studies on the Binding of Liquiritigenin with Hyaluronidase for Antiallergic Mechanism” (Scientifica, 2016).

For assay [1], the system named is T1, Hyaluronidase (HAase).
T1 construct: gene SPAM1; ovine testis or bacterial possible; human HYAL1 2PE4 was only the docking model
The assay can be described thus: intrinsic fluorescence quenching, excitation […] nm. As to conditions: 293 K; sodium phosphate buffer pH 7.4; HAase 2.0 × 10^−6 mol L^−1; n 1.0623; double-log. Format: binding.

Assay [2] deals with T1, Hyaluronidase (HAase). The assay can be described thus: modified Morgan-Elson colorimetric assay (DMAB, […] nm). Format: biochemical. The conditions noted are these: hyaluronic acid sodium 0.5 mg mL^−1; HAase 500 U mL^−1; CaCl2 12.5 mM; 37 °C.

Turning to `O=C1C[C@@H](c2ccc(O)cc2)Oc2cc(O)ccc21` [liquiritigenin], the “K a” value in the assay with Hyaluronidase (HAase) [1] was 39537 L/mol. Inhibition against Hyaluronidase (HAase) [2] was half-maximal at 680 ± 43 µM (IC50).
